In ChEMBL document CHEMBL4616662, “Cyperane-Type and Related (Nor)Sesquiterpenoids from the Root Bark of Acanthopanax gracilistylus and Their Inhibitory Effects on Nitric Oxide Production” (J Nat Prod, 2020):

How the values were obtained:
RAW264.7 [1] = test: Antiinflammatory activity in mouse RAW264.7 cells assessed as inhibition of LPS-induced nitirc oxide production pretreated followed by LPS challenge and measured after 24 hrs by Griess assay; type: functional, cell-based
RAW264.7 [2] = test: Cytotoxicity against LPS-stimulated mouse RAW264.7 cells at 6.25 to 100 uM by MTT assay; type: cell-based; details: raw264.7, 100 µM

| SMILES | IC50 (RAW264.7 [1]) [µM] | Activity (RAW264.7 [2]) |
| --- | --- | --- |
| CC(=O)[C@@H]1CC[C@@]2(C)CCC(=O)O[C@@]2(C(C)=O)C1 | 2.6 | Non-Toxic |
| CC(=O)[C@]12C=C([C@@](C)(O)CO)CC[C@@]1(C)CC[C@H]2O | 6.8 | Non-Toxic |
| CC(=O)[C@@]12C=C([C@](C)(O)CO)CC[C@]1(C)CC[C@@H]2O | 7.7 | Non-Toxic |
| COC(=O)[C@@H](N)CCCNC(=N)N[N+](=O)[O-] [L-NAME] | 58.4 |  |
